We go through three molecules from patent publication US7417060B2, “Aminoalcohol derivatives” (Astellas Pharma Inc., priority 2003, dated 2008).

SMILES strings stand for the structures.

This assay concerns intravesical pressure (IVP) increase induced by carbachol. As to the kind of experiment: Effect on the increase in intravesical pressure induced by carbachol in anesthetized dog. In kind it is in vivo. As to conditions: anesthetized female Beagle dogs; test compound 0.010 mg/kg intravenously 30 minutes before carbachol (1.8 μg/kg). As to the method: Effect on the Increase in Intravesical Pressure Induced by Carbachol in Anesthetized Dog
Female Beagle dogs weighing 8.0-15.0 kg were fasted for 24 hours and maintained under halothane anesthesia. A 12F Foley catheter was lubricated with water soluble jelly, inserted into the urethral orifice and advanced approximately 10 cm until the balloon tip was placed well inside the bladder. The balloon was then inflated with 5 ml of room air and catheter slowly withdrawn just part the first resistance that was felt at the bladder neck. Urine was completely drained out through the catheter, and 30 ml of biological saline was infused. The catheter was connected to pressure transducer, and intravesical pressure (IVP) was continuously recorded. The test compound was administered intravenously at 30 minutes before the administration of carbachol (1.8 μg/kg). Percent inhibition of IVP increase by test compound was calculated by dividing IVPa (IVP increase induced by carbachol after test compound administration) by IVPb (IVP increase induced by carbachol just before test compound administration).

As for `CC(C)Sc1cc(-c2ccc(CCN[C@@H](C)[C@H](O)c3ccccc3)cc2)ccc1C(=O)O.Cl` [Test Compound (1), 4′-[2-[[(1S,2R)-2-Hydroxy-1-methyl-2-phenylethyl]-amino]ethyl]-3-(isopropylthio)-4-biphenylcarboxylic acid hydrochloride], the “Percent inhibition of IVP increase” value came to 77%.

`CC(C)Cc1cc(-c2ccc(CCN[C@@H](C)[C@H](O)c3ccccc3)cc2)ccc1C(=O)NS(C)(=O)=O.Cl` [Test Compound (2), 4′-[2-[[(1S,2R)-2-Hydroxy-1-methyl-2-phenylethyl]-amino]ethyl]-3-isobutyl-N-(methylsulfonyl)-4-biphenylcarboxamide hydrochloride]: the “Percent inhibition of IVP increase” value was determined as 76%.

Consider `CS(=O)(=O)NC(=O)c1ccc(-c2ccc(CCNC[C@H](O)c3cccnc3)cc2)cc1OC1CCCCC1.Cl.Cl` [Test Compound (3), 3-(Cyclohexyloxy)-4′-[2-[[(2R)-2-hydroxy-2-(3-pyridyl)ethyl]amino]ethyl]-N-(methylsulfonyl)-4-biphenylcarboxamide dihydrochloride], for which the “Percent inhibition of IVP increase” value came to 89%.
